Values of other authors, collected in patent publication US20100158923A1, “REDUCING POLYGLUTAMINE-BASED AGGREGATION” (Northwestern University, priority 2003, published 2010).

Experiments:
human SST2 = human SST2 (Homo sapiens, UniProt P30874)
GH release = conditions: administered orally and parenterally
IGF-1 levels = conditions: administered subcutaneously

Sequence of human SST2 (P30874 whole entry): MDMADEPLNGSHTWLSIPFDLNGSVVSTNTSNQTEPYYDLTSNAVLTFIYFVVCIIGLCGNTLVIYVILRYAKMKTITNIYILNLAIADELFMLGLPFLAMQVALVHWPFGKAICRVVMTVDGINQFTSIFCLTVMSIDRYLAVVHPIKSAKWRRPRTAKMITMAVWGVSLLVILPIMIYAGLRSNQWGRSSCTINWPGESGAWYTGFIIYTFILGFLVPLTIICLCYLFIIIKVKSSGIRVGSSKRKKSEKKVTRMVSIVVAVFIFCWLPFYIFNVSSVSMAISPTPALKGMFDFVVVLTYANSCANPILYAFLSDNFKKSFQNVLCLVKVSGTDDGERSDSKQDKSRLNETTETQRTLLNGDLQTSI

CC(C)(C)OC(=O)[C@H](CCCCN)NC(=O)[C@@H](Cc1c[nH]c2ccccc12)NC(=O)N1CCC(n2c(=O)[nH]c3ccccc32)CC1 [L-054,522]
selectivity (human SST2; SST2 binding, comparison receptors not stated): highly selective
Kd (human SST2; binding to human SST2, read-out: apparent Kd): 0.01 nM

CC(C)(N)C(=O)N[C@H](COCc1ccccc1)C(=O)N1CCC2(CC1)CN(S(C)(=O)=O)c1ccccc12 [MK-0677]
GH-releasing effects (GH release): potent GH-releasing effects

Pegvisomant: modified human GH in which nine amino acids have been replaced, with polyethylene glycol polymers; GH receptor antagonist
effect on IGF-1 levels (IGF-1 levels): dose dependent reduction

[N-acetyl-Tyr^1,D-Arg^2] GHRH^1-29NH2 [standard GHRH antagonist]
effect on human GH secretory response to exogenous GHRH (GH secretion; response to exogenous GHRH): inhibits
effect on spontaneous GH secretion (GH secretion; spontaneous GH secretion): lowers
